In publication PMC10355191 (Chemical research in toxicology, 2023):

Target: α2A-adrenergic receptor (Homo sapiens, UniProt P08913)
Sequence (P08913 whole entry): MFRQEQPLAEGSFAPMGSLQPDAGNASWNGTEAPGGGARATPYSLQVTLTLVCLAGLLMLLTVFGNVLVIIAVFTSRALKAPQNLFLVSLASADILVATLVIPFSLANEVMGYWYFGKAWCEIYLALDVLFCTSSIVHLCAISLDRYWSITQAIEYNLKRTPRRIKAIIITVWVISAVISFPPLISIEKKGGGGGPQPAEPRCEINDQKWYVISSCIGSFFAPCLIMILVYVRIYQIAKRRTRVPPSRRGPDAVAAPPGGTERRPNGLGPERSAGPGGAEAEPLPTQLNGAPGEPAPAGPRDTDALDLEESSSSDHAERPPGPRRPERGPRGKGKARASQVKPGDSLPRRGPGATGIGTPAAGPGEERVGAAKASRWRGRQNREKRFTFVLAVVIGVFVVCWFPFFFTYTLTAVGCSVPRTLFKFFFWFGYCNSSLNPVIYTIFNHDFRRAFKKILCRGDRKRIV

- % inhibition at 1 μM: 50
SMILES: N=C(N)N/N=C/c1c(Cl)cccc1Cl [E-GA, trans-guanabenz]
